Structures can show the parent of a compound that is named as a salt. Values belong to the compound of their own block, whether it stands above or below them.
How the values were obtained:
[1] = tested on: penicillin- and quinolone-resistant pneumococcal mutant strain; conditions: experimental rabbit meningitis; cited from earlier work
Enterococcus = experiment: Average MIC data, growth at serial concentrations; type: cell-based
From the text: (§1) Minimum Inhibitory Concentration Data
(§2) Average MIC data with growth details in various concentration of ceftriaxone and vancomycin combination of the present invention, ceftriaxone alone and vancomycin alone with following bacteria such as MSSA, Enterococcus, S. pneumoniae, Penicillin resistant streptococcus pneumoniae, MRSA.

S. pneumoniae = experiment: Average MIC data, growth at serial concentrations; type: cell-based
From the text: as §1, §2

S. aurens = experiment: Average MIC data, growth at serial concentrations; type: cell-based
From the text: as §1, §2

S. aurens (MRSA) = experiment: Average MIC data, growth at serial concentrations; type: cell-based
From the text: as §1, §2

Streptococcus pneumoniae = experiment: Average MIC data, growth at serial concentrations; type: cell-based
From the text: as §1, §2

Structure (SMILES): CO/N=C(\C(=O)N[C@@H]1C(=O)N2C(C(=O)[O-])=C(C[N+]3(C)CCCC3)CS[C@H]12)c1csc(N)n1 [cefepime]
bactericidal activity [1]: −0.61+/−0.24 Delta log(10) cfu/mL×h

Growth at concentration (Average MIC data) (Enterococcus; 0.125 μg/ml): Growth Found
Growth at concentration (Average MIC data) (Enterococcus; 0.25 μg/ml): Growth Found
Growth at concentration (Average MIC data) (Enterococcus; 0.5 μg/ml): Growth Found
Growth at concentration (Average MIC data) (Enterococcus; 1 μg/ml): No growth
Growth at concentration (Average MIC data) (Enterococcus; 2 μg/ml): No growth
Growth at concentration (Average MIC data) (Enterococcus; 4 μg/ml): No growth
Growth at concentration (Average MIC data) (Enterococcus; 8 μg/ml): No growth
Growth at concentration (Average MIC data) (Enterococcus; 16 μg/ml): No growth
Growth at concentration (Average MIC data) (Enterococcus; 32 μg/ml): No growth
Growth at concentration (Average MIC data) (Enterococcus; 64 μg/ml): No growth
Growth at concentration (Average MIC data) (Enterococcus; 128 μg/ml): No growth
Growth at concentration (Average MIC data) (S. pneumoniae; 0.125 μg/ml): Growth Found
Growth at concentration (Average MIC data) (S. pneumoniae; 0.25 μg/ml): Growth Found
Growth at concentration (Average MIC data) (S. pneumoniae; 0.5 μg/ml): No growth
Growth at concentration (Average MIC data) (S. pneumoniae; 1 μg/ml): No growth
Growth at concentration (Average MIC data) (S. pneumoniae; 2 μg/ml): No growth
Growth at concentration (Average MIC data) (S. pneumoniae; 4 μg/ml): No growth
Growth at concentration (Average MIC data) (S. pneumoniae; 8 μg/ml): No growth
Growth at concentration (Average MIC data) (S. pneumoniae; 16 μg/ml): No growth
Growth at concentration (Average MIC data) (S. pneumoniae; 32 μg/ml): No growth
Growth at concentration (Average MIC data) (S. pneumoniae; 64 μg/ml): No growth
Growth at concentration (Average MIC data) (S. pneumoniae; 128 μg/ml): No growth
Growth at concentration (Average MIC data) (S. aurens; 0.125 μg/ml): Growth Found
Growth at concentration (Average MIC data) (S. aurens; 0.25 μg/ml): Growth Found
Growth at concentration (Average MIC data) (S. aurens; 0.5 μg/ml): Growth Found
Growth at concentration (Average MIC data) (S. aurens; 1 μg/ml): No growth
Growth at concentration (Average MIC data) (S. aurens; 2 μg/ml): No growth
Growth at concentration (Average MIC data) (S. aurens; 4 μg/ml): No growth
Growth at concentration (Average MIC data) (S. aurens; 8 μg/ml): No growth
Growth at concentration (Average MIC data) (S. aurens; 16 μg/ml): No growth
Growth at concentration (Average MIC data) (S. aurens; 32 μg/ml): No growth
Growth at concentration (Average MIC data) (S. aurens; 64 μg/ml): No growth
Growth at concentration (Average MIC data) (S. aurens; 128 μg/ml): No growth
Growth at concentration (Average MIC data) (S. aurens (MRSA); 0.125 μg/ml): Growth Found
Growth at concentration (Average MIC data) (S. aurens (MRSA); 0.25 μg/ml): Growth Found
Growth at concentration (Average MIC data) (S. aurens (MRSA); 0.5 μg/ml): Growth Found
Growth at concentration (Average MIC data) (S. aurens (MRSA); 1 μg/ml): Growth Found
Growth at concentration (Average MIC data) (S. aurens (MRSA); 2 μg/ml): Growth Found
Growth at concentration (Average MIC data) (S. aurens (MRSA); 4 μg/ml): Growth Found
Growth at concentration (Average MIC data) (S. aurens (MRSA); 8 μg/ml): Growth Found
Growth at concentration (Average MIC data) (S. aurens (MRSA); 16 μg/ml): Growth Found
Growth at concentration (Average MIC data) (S. aurens (MRSA); 32 μg/ml): Growth Found
Growth at concentration (Average MIC data) (S. aurens (MRSA); 64 μg/ml): No growth
Growth at concentration (Average MIC data) (S. aurens (MRSA); 128 μg/ml): No growth
Growth at concentration (Average MIC data) (Streptococcus pneumoniae; 0.125 μg/ml): Growth Found
Growth at concentration (Average MIC data) (Streptococcus pneumoniae; 0.25 μg/ml): Growth Found
Growth at concentration (Average MIC data) (Streptococcus pneumoniae; 0.5 μg/ml): Growth Found
Growth at concentration (Average MIC data) (Streptococcus pneumoniae; 1 μg/ml): Growth Found
Growth at concentration (Average MIC data) (Streptococcus pneumoniae; 2 μg/ml): Growth Found
Growth at concentration (Average MIC data) (Streptococcus pneumoniae; 4 μg/ml): No growth
Growth at concentration (Average MIC data) (Streptococcus pneumoniae; 8 μg/ml): No growth
Growth at concentration (Average MIC data) (Streptococcus pneumoniae; 16 μg/ml): No growth
Growth at concentration (Average MIC data) (Streptococcus pneumoniae; 32 μg/ml): No growth
Growth at concentration (Average MIC data) (Streptococcus pneumoniae; 64 μg/ml): No growth
Growth at concentration (Average MIC data) (Streptococcus pneumoniae; 128 μg/ml): No growth
Structure (SMILES): CO/N=C(\C(=O)N[C@@H]1C(=O)N2C(C(=O)O)=C(CSc3nc(=O)c(=O)[nH]n3C)CS[C@H]12)c1csc(N)n1 [Ceftriaxone, (Z)-7-[2-(2-Aminothiazole-4-yl)-2-methoxyiminoacetamido]-3-[(2,5-dihydro-6-hydroxy-2-methyl-5-oxo-1,2,4-triazin-3-yl)thiomethyl]-3-cephem-4-carboxylic acid, disodium salt, Sesquaterhydrate]

Structure (SMILES): CN[C@H](CC(C)C)C(=O)N[C@H]1C(=O)N[C@@H](CC(N)=O)C(=O)N[C@H]2C(=O)N[C@H]3C(=O)N[C@H](C(=O)N[C@H](C(=O)O)c4cc(O)cc(O)c4-c4cc3ccc4O)[C@H](O)c3ccc(c(Cl)c3)Oc3cc2cc(c3O[C@@H]2O[C@H](CO)[C@@H](O)[C@H](O)[C@H]2O[C@H]2C[C@](C)(N)[C@H](O)[C@H](C)O2)Oc2ccc(cc2Cl)[C@H]1O [Vancomycin]
Growth at concentration (Average MIC data) (Enterococcus; 0.125 μg/ml): Growth Found
Growth at concentration (Average MIC data) (Enterococcus; 0.25 μg/ml): Growth Found
Growth at concentration (Average MIC data) (Enterococcus; 0.5 μg/ml): No growth
Growth at concentration (Average MIC data) (Enterococcus; 1 μg/ml): No growth
Growth at concentration (Average MIC data) (Enterococcus; 2 μg/ml): No growth
Growth at concentration (Average MIC data) (Enterococcus; 4 μg/ml): No growth
Growth at concentration (Average MIC data) (Enterococcus; 8 μg/ml): No growth
Growth at concentration (Average MIC data) (Enterococcus; 16 μg/ml): No growth
Growth at concentration (Average MIC data) (Enterococcus; 32 μg/ml): No growth
Growth at concentration (Average MIC data) (Enterococcus; 64 μg/ml): No growth
Growth at concentration (Average MIC data) (Enterococcus; 128 μg/ml): No growth
Growth at concentration (Average MIC data) (S. pneumoniae; 0.125 μg/ml): Growth Found
Growth at concentration (Average MIC data) (S. pneumoniae; 0.25 μg/ml): Growth Found
Growth at concentration (Average MIC data) (S. pneumoniae; 0.5 μg/ml): No growth
Growth at concentration (Average MIC data) (S. pneumoniae; 1 μg/ml): No growth
Growth at concentration (Average MIC data) (S. pneumoniae; 2 μg/ml): No growth
Growth at concentration (Average MIC data) (S. pneumoniae; 4 μg/ml): No growth
Growth at concentration (Average MIC data) (S. pneumoniae; 8 μg/ml): No growth
Growth at concentration (Average MIC data) (S. pneumoniae; 16 μg/ml): No growth
Growth at concentration (Average MIC data) (S. pneumoniae; 32 μg/ml): No growth
Growth at concentration (Average MIC data) (S. pneumoniae; 64 μg/ml): No growth
Growth at concentration (Average MIC data) (S. pneumoniae; 128 μg/ml): No growth
Growth at concentration (Average MIC data) (S. aurens; 0.125 μg/ml): Growth Found
Growth at concentration (Average MIC data) (S. aurens; 0.25 μg/ml): Growth Found
Growth at concentration (Average MIC data) (S. aurens; 0.5 μg/ml): Growth Found
Growth at concentration (Average MIC data) (S. aurens; 1 μg/ml): Growth Found
Growth at concentration (Average MIC data) (S. aurens; 2 μg/ml): Growth Found
Growth at concentration (Average MIC data) (S. aurens; 4 μg/ml): No growth
Growth at concentration (Average MIC data) (S. aurens; 8 μg/ml): No growth
Growth at concentration (Average MIC data) (S. aurens; 16 μg/ml): No growth
Growth at concentration (Average MIC data) (S. aurens; 32 μg/ml): No growth
Growth at concentration (Average MIC data) (S. aurens; 64 μg/ml): No growth
Growth at concentration (Average MIC data) (S. aurens; 128 μg/ml): No growth
Growth at concentration (Average MIC data) (S. aurens (MRSA); 0.125 μg/ml): Growth Found
Growth at concentration (Average MIC data) (S. aurens (MRSA); 0.25 μg/ml): Growth Found
Growth at concentration (Average MIC data) (S. aurens (MRSA); 0.5 μg/ml): Growth Found
Growth at concentration (Average MIC data) (S. aurens (MRSA); 1 μg/ml): Growth Found
Growth at concentration (Average MIC data) (S. aurens (MRSA); 2 μg/ml): Growth Found
Growth at concentration (Average MIC data) (S. aurens (MRSA); 4 μg/ml): No growth
Growth at concentration (Average MIC data) (S. aurens (MRSA); 8 μg/ml): No growth
Growth at concentration (Average MIC data) (S. aurens (MRSA); 16 μg/ml): No growth
Growth at concentration (Average MIC data) (S. aurens (MRSA); 32 μg/ml): No growth
Growth at concentration (Average MIC data) (S. aurens (MRSA); 64 μg/ml): No growth
Growth at concentration (Average MIC data) (S. aurens (MRSA); 128 μg/ml): No growth
Growth at concentration (Average MIC data) (Streptococcus pneumoniae; 0.125 μg/ml): Growth Found
Growth at concentration (Average MIC data) (Streptococcus pneumoniae; 0.25 μg/ml): Growth Found
Growth at concentration (Average MIC data) (Streptococcus pneumoniae; 0.5 μg/ml): Growth Found
Growth at concentration (Average MIC data) (Streptococcus pneumoniae; 1 μg/ml): No growth
Growth at concentration (Average MIC data) (Streptococcus pneumoniae; 2 μg/ml): No growth
Growth at concentration (Average MIC data) (Streptococcus pneumoniae; 4 μg/ml): No growth
Growth at concentration (Average MIC data) (Streptococcus pneumoniae; 8 μg/ml): No growth
Growth at concentration (Average MIC data) (Streptococcus pneumoniae; 16 μg/ml): No growth
Growth at concentration (Average MIC data) (Streptococcus pneumoniae; 32 μg/ml): No growth
Growth at concentration (Average MIC data) (Streptococcus pneumoniae; 64 μg/ml): No growth
Growth at concentration (Average MIC data) (Streptococcus pneumoniae; 128 μg/ml): No growth

From patent US8778873B2, “Parenteral combination therapy for infective conditions with drug resistant bacterium” (Venus Remedies Limited, priority 2005, dated 2014)
